The values below come from patent US8673929B2, “4,6-di- and 2,4,6-trisubstituted quinazoline derivatives and pharmaceutical compositions useful for treating viral infections” (priority 2006, dated 2014).

One data set has as its system Huh-7 HCV replicon cells. Description: CC50 assay in the anti-HCV replicon assay (CellTiter-Glo). It counts as cell-based, human. Particulars: 3 days incubation, CellTiter-Glo luminescence. The procedure, abridged: (§1)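 Huh-7 cells harbouring an HCV replicon (6000/well) incubated 3 days at 37° C with 3-fold serially diluted compound (0.5% DMSO final where used). EC50 from luciferase luminescence of lysed cells; CC50 from CellTiter-Glo luminescence in parallel plates.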
On the technique in general: Replicon systems follow genome replication, usually without infectious particles.

A further data set has as its target HCV replicon. As to the kind of experiment: Anti-HCV replicon assay, EC50 (luciferase readout). It counts as cell-based. Particulars: Huh-7 HCV replicon cells, 3 days incubation, luciferase luminescence. Summed up:
as §1

Bounds are passed on as bounds.

One may read the CC50 as the concentration that lowers cell viability or growth by half. A higher CC50 goes with better tolerance by the cells. As usually defined, the EC50 is the midpoint of the concentration-response curve. The low end stands for a more potent agent, the high end for a less potent agent. In the case of `CN(C)CCCOc1nc(N)nc2ccc(-c3ccc(C(F)(F)F)cc3C(F)(F)F)cc12` [Example 226, 6-(2,4-bis-trifluoromethyl-phenyl)-4-(3-dimethyl-aminopropoxy)-quinazolin-2-ylamine], the 50% cytotoxic concentration (CC50) in the data set with Huh-7 HCV replicon cells was more than 20 µM. In addition, the EC50 at HCV replicon fell in the range of 1 to 10 µM.

In turn, `CN(C)CCCOc1nc(N)nc2ccc(-c3ccc(F)c(Cl)c3)cc12` [Example 228, 6-(3-Chloro-4-fluoro-phenyl)-4-(3-dimethyl-aminopropoxy)-quinazolin-2-ylamine] registered a 50% cytotoxic concentration (CC50) with Huh-7 HCV replicon cells of more than 20 µM. The compound further had an EC50 on HCV replicon of 1 to 10 µM.

`CCOc1ncnc2ccc(-c3cn[nH]c3)cc12` [Example 247, 4-ethoxy-6-(1H-pyrazo-4-yl)-quinazoline]: the half-maximal cytotoxic concentration (CC50) with Huh-7 HCV replicon cells is more than 20 µM. In addition, at HCV replicon, the EC50 lay in the range of 0.3 to 1 µM.

In the data set on Huh-7 HCV replicon cells, `CCOc1nc(NCc2ccc(S(N)(=O)=O)cc2)nc2ccc(-c3ccc(C(=O)NC4CC4)cc3)cc12` [Example 256, N-Cyclopropyl-4-[4-ethoxy-2-(4-sulfamoyl-benzylamino)-auinazolin-6-yl]-benzamide] returned a CC50 of less than 10 µM. The EC50 on HCV replicon is less than 0.3 µM.

The compound “(R)-4-[2-Amino-4-(tetrahydro-furan-3-yloxy)-quinazolin-6-yl]-N-[2-(1-methyl-pyrrolidin-2-yl)-ethyl]-benzamide [Example 221]” gave a CC50 in the data set on Huh-7 HCV replicon cells of 10 to 20 µM. On HCV replicon, this compound showed a concentration for a half-maximal effect (EC50) of 0.3 to 1 µM.
